Measured values: paper PMC8879444, “Neofunctionalization of Glycolytic Enzymes: An Evolutionary Route to Plant Parasitism in the Oomycete Phytophthora nicotianae” (Microorganisms, 2022)
Where two headings read alike, the source gives them in different places.

Tested on: GKI (PPTG_18934)
Conditions: pH 8.0, phosphate buffer

| SMILES | Km (read-out: Km / ATP, co-substrate glucose) [µM] | Km (read-out: Km / Glucose, substrate inhibition at glucose >= 1 mM) [µM] |
| --- | --- | --- |
| Nc1ncnc2c1ncn2[C@@H]1O[C@H](COP(=O)(O)OP(=O)(O)OP(=O)(O)O)[C@@H](O)[C@H]1O [ATP] | 700 ± 50 |  |
| OC[C@H]1OC(O)[C@H](O)[C@@H](O)[C@@H]1O (some centres unmarked) [Glucose] |  | 40.5 ± 5 |
